Data as given in patent US20090156501A1, “IDENTIFICATION OF LIGANDS BY SELECTIVE AMPLIFICATION OF CELLS TRANSFECTED WITH RECEPTORS” (ACADIA PHARMACEUTICALS, INC., priority 1999, published 2009).
Like-named read-outs stand apart in the source and are kept apart here.

How the values were obtained:
Type in all cases: cell-based
[1] = target: T1, α2-C4 adrenergic receptor (Homo sapiens, UniProt P18825); experiment: Single Receptor Format amplification assay, alpha 2 C4; conditions: for Max Response, α2-C4: relative to other ligands at the given receptor; for EC50: Table 3, 8-10 concentrations, 3-4 replicates, read-out: Agonist EC50 nM, α2-C4
T1 construct: expressed in transfected cells; host or cells: NIH 3T3
T1 sequence (P18825 1-462): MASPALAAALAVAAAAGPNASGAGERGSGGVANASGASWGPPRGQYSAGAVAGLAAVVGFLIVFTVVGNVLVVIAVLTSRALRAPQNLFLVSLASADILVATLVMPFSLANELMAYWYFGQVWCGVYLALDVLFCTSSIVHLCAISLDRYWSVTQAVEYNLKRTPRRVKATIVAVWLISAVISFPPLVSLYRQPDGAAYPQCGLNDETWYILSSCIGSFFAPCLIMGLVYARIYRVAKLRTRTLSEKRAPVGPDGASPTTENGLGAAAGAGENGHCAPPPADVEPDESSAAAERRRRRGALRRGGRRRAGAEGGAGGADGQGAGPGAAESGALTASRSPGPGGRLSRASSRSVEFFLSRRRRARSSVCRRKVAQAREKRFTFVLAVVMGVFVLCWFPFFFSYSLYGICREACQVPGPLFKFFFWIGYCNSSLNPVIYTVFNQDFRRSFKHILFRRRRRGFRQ

trk A receptor = target: T2, trk A receptor (Homo sapiens, UniProt P04629); experiment: Single Receptor Format amplification assay, trk A; conditions: 7-9 doses in duplicate
T2 construct: expressed in transfected cells; host or cells: NIH 3T3

trk C receptor = target: T3, trk C receptor (Homo sapiens, UniProt Q16288); experiment: Single Receptor Format amplification assay, trk C; conditions: 7-9 doses in duplicate
T3 construct: expressed in transfected cells; host or cells: NIH 3T3
Excerpt: Also illustrated is the dose-response relationships of the related neutrotrophic factor NT3.
Receptors belonging to several functional categories have successfully been assayed using the general protocol for the Single Receptor Format described above. […] A diversity of signal transduction classes are also illustrated: G-protein coupled receptors, tyrosine kinase linked receptors, G-proteins and oncogenes. In a few of these cases, focus assays have been used to assay ligand interaction with the illustrated receptors.

[2] = target: T4, α2-C10 adrenergic receptor (Homo sapiens, UniProt P08913); experiment: Single Receptor Format amplification assay, alpha 2 C10; conditions: for EC50: Table 3, 8-10 concentrations, 3-4 replicates, read-out: Agonist EC50 nM, α2-C10; for Max Response, α2-C10: relative to other ligands at the given receptor
T4 construct: expressed in transfected cells; host or cells: NIH 3T3
T4 sequence (P08913 1-465): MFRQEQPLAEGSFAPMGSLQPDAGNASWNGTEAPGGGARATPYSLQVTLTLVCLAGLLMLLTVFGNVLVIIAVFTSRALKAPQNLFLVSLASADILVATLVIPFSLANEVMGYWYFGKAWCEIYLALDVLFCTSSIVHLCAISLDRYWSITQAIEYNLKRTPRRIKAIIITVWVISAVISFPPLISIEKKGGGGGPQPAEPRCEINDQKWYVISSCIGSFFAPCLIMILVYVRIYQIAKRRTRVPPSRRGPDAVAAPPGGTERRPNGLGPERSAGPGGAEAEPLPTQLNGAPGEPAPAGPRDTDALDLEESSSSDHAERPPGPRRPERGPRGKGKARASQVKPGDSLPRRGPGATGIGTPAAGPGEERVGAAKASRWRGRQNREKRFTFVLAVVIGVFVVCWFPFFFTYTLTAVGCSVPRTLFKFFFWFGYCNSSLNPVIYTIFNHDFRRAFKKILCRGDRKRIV

[3] = target: T5, α2-C2 adrenergic receptor (Homo sapiens, UniProt P18089); experiment: Single Receptor Format amplification assay, alpha 2 C2; conditions: for EC50: Table 3, 8-10 concentrations, 3-4 replicates, read-out: Agonist EC50 nM, α2-C2
T5 construct: expressed in transfected cells; host or cells: NIH 3T3
T5 sequence (P18089 1-450): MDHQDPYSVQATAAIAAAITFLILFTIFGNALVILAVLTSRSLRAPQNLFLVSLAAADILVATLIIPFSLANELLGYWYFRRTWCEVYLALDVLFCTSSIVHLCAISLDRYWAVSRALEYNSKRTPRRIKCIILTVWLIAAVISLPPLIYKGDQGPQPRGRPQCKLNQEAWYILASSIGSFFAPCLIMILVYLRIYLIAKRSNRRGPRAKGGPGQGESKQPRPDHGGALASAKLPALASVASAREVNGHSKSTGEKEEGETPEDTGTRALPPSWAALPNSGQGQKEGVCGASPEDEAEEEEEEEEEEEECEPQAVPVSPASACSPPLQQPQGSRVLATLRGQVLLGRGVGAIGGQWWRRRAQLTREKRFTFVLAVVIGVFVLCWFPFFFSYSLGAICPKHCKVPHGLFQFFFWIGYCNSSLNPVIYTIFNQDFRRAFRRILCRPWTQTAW

[4] = relative to other ligands at the given receptor

T2 sequence (P04629 33-790 isoform P04629-2 limits assumed): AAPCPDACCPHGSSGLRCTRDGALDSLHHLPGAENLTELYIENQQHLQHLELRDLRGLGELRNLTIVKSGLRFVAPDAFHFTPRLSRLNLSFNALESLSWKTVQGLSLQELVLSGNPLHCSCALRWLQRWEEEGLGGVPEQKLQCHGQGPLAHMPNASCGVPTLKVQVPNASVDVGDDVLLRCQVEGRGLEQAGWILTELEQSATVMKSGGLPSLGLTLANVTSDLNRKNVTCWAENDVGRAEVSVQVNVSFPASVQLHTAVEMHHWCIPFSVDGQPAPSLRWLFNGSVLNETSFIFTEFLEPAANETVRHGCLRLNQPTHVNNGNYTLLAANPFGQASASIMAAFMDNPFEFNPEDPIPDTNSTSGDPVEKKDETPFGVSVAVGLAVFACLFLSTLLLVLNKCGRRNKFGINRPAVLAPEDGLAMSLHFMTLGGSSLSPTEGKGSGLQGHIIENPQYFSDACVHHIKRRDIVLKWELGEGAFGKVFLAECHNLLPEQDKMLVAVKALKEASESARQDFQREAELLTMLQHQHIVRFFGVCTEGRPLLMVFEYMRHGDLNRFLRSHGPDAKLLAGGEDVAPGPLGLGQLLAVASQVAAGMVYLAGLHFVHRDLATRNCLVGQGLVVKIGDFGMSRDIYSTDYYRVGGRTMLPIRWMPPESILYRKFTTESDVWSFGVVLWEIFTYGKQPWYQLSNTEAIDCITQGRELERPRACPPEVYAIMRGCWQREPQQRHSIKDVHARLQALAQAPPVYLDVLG

Compound | Max Response, α2-C4 [1] | Max Response, α2-C10 [2] | Max Response, α2-C2 [3, 4] | also measured
N=C(N)NC(=O)Cc1c(Cl)cccc1Cl [Guanfacine] | ± |  |  | 
NT3: related neutrotrophic factor NT3 |  |  |  | Ligand EC50, trk A (trk A receptor): >1000 ng/mL; Ligand EC50, trk C (trk C receptor): 2.4 ± 1.1 ng/mL
Clc1cccc(Cl)c1N=C1NCCN1 [Clonidine] | ++ |  |  | 
CCN1CCc2nc(N)oc2CC1 [BHT 933] |  | ++ | +++ | EC50 [2]: > 10000 nM; EC50 [3]: > 10000 nM
NC[C@H](O)c1ccc(O)c(O)c1 [Norepinephrine] | + |  | ++ | EC50 [1]: 2 nM; EC50 [3]: 7200 nM
C=CCN1CCc2nc(N)sc2CC1 [BHT 920] | +++ | +++ | +++ | EC50 [1]: > 10000 nM; EC50 [2]: > 10000 nM
COc1cc2nc(N3CCN(C(=O)c4ccco4)CC3)nc(N)c2cc1OC [Prazocin] | ++ | ± |  | 
Cc1cccc([C@H](C)c2cnc[nH]2)c1C [Dexmedetomidine] | ± | ± |  | Max Response, α2-C2 [3]: 2/+++
